“And” between values parts separate entries of the source, which are not always exact repeats. Equal entries are not always repeated. The source made the active and inactive calls.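 The calls were made as follows: active = a concentration killing half the fathead minnows in the acute test was determined; inconclusive = some fish died but not half at top dose; inactive = no fish died even at top dose.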
test system: Fathead minnow (Pimephales promelas) acute toxicity, lethality; test: DSSTox (EPAFHM) EPA Fathead Minnow Acute Toxicity
Description: The EPA Fathead Minnow Acute Toxicity database was generated by the U.S. EPA Mid-Continental Ecology Division (MED) for the purpose of developing an expert system to predict acute toxicity from chemical structure based on mode of action considerations. […] A second valuable aspect of this database, from a QSAR modeling perspective, is the inclusion of general mode-of-action (MOA) classifications of acute toxicity response for individual chemicals derived from study results. MOA assignments are biologically based classifications, allowing definition of chemical similarity based upon biological activity instead of organic chemistry functional class as most commonly employed in QSAR study. MOA classifications should strengthen the scientific basis for construction of individual QSARs. However, it is cautioned that the broad MOA categorizations should not be construed to represent a single molecular mechanism; for example, CNS seizure agents and respiratory inhibitors are known to act through a variety of receptors. The EPA Fathead Minnow database and results have been used by EPA MED to build components of the ASTER prediction system, which incorporates MOA-based QSARs for the prediction of aquatic toxicity of environmental and industrial chemicals. Briefly, MOA classifications for individual chemicals, derived from experiments and provided in the EPA Fathead Minnow database, were used to derive substructural rules for assigning a new chemical to an MOA category based solely on chemical structure. Once a new chemical is assigned to an MOA category on this basis, the logP-based QSAR for that MOA category is applied.
The DSSTox EPAFHM database (available from the DSSTox Source URL) includes information pertaining to organic chemical class assignments (ChemClass_FHM), acute toxicity in fathead minnow (LC50_mg), dose-response assessments (LC50_Ratio, ExcessToxicityIndex), behavioral assessments (FishBehaviorTest), joint toxicity MOA evaluations of mixtures (MOA_MixtureTest), and additional MOA evaluation of fish acute toxicity syndrome (FishAcuteToxSyndrome) in rainbow trout. All of these indicators, to the extent available, were considered in the determination of MOA and, additionally, were used to determine a level of confidence in the MOA assignment for each chemical (MOA_Confidence). […] Activity Score is mapping of LOG10 (1/LC50_mmol) activity values spanning activity range [MIN, MAX] onto Integer 1-100 Activity range, where 100 is highest potency and 1 is lowest. If Activity Outcome is "active": Activity Score = 100 * INTEGER[(log10(1/ LC50_mmol) - MIN)/([…])].

Row | Structure (SMILES) | Potency | outcome
1 | ClCCCCCl | 406 µM | 
2 | CCCCCCCCCCCN | 1.23 µM | 
3 | CC(=O)c1ccc(Cl)cc1Cl | 68.9 µM | 
4 | O=[N+]([O-])c1ccccc1O | 1150 µM | 
5 | CC(C)(C)c1ccc(Oc2cccc(C=O)c2)cc1 | 1.45 µM | 
6 | c1ccccc1 | 225 µM | 
7 | Cl/C=C/CCl | 2.15 µM | 
8 | Clc1cccc(Cl)c1 | 54.6 µM | 
9 | c1ccncc1 | 1260 µM | 
10 | CCCO | 75700 µM | 
11 | CCCCCCCN | 189 µM | 
12 | Oc1ccc(Cl)cc1 | 47.5 µM | 
13 | COc1cc(C=O)cc(Br)c1O | 258 µM | 
14 | CN(C)c1ccccc1 | 529 µM | 
15 | CCC(=O)CC | 17900 µM | 
16 | C[N+](C)(C)C | 4220 µM | 
17 | C[N+](C)(C)c1ccccc1 | 924 µM and 1000 µM | 
18 | CCCCCCCCCCCC(C)=O | 1.81 µM | 
19 | CCCC(C)C1(CC)C(=O)N=C(O)NC1=O (stereo not drawn) | 199 µM | 
20 | OCCCl | 667 µM | 
21 | CCCCN | 3660 µM | 

Row | Structure (SMILES) | Potency | outcome
22 | CC(=O)Nc1ccccc1O | 179 µM | 
23 | CCSCCCCSCC | 34 µM | 
24 | CC(C)C(C(=O)OC(C#N)c1cccc(Oc2ccccc2)c1)c1ccc(Cl)cc1 (stereo not drawn) | 0.0121 µM | 
25 | CCCCC(CC)CO (stereo not drawn) | 217 µM | 
26 | CC1(C)[C@H]2CC[C@]1(C)[C@H](O)C2 | 410 µM | 
27 | C=CCO | 5.51 µM | 
28 | NC(=O)c1cccc(Br)c1 | 463 µM | 
29 | C#CC1(O)CCCCC1 | 2060 µM | 
30 | C#CC(C)(O)CCC(C)C (stereo not drawn) | 349 µM | 
31 | N#CCCl | 17.8 µM | 
32 | COC(=O)c1ccc([N+](=O)[O-])cc1 | 131 µM | 
33 | CCCCCCCCCCC(C)=O | 6.4 µM | 
34 | O=C(c1ccccc1)c1ccccc1 | 80.7 µM | 
35 | c1cc[c]([Sn]([c]2ccccc2)([c]2ccccc2)[c]2ccccc2)cc1 |  | inactive; moa not determined either due to lack of toxicity at saturation or late test res
36 | CC(Cl)(Cl)Cl | 355 µM | 
37 | Cc1ccc([N+](=O)[O-])c(OP(=O)(Oc2cc(C)ccc2[N+](=O)[O-])Oc2cc(C)ccc2[N+](=O)[O-])c1 |  | inactive; moa not determined either due to lack of toxicity at saturation or late test res
38 | O=C1NS(=O)(=O)c2ccccc21 | 82000 µM | 
39 | Clc1cccc(Cl)c1C(Cl)Cl | 4.22 µM | 
40 | O=Cc1c(F)cccc1Cl | 59.3 µM | 
41 | C#CC(C)(C)O | 39100 µM | 
42 | CCCCC(=O)CCCC | 218 µM | 

Row | Structure (SMILES) | Potency | outcome
43 | O=C(O)C[n+]1ccccc1 | 933 µM | 
44 | CCCCCCCCCCc1ccc(N)cc1 | 0.266 µM | 
45 | Cc1cccc(Cl)c1C#N | 99.6 µM | 
46 | CCCCCCCCCCO | 15.2 µM | 
47 | Brc1nc(Br)c(Br)[nH]1 | 20.1 µM | 
48 | OCCN1CCNCC1 | 49200 µM | 
49 | CCCCCCCC/C=C\CCCCCCCCO |  | inactive; moa not determined either due to lack of toxicity at saturation or late test res
50 | CC(C)[C@@H]1CC[C@@H](C)C[C@H]1O | 121 µM | 
51 | ClCCCl | 1370 µM | 
52 | Cc1ccccc1O | 129 µM | 
53 | OCCOCCOCCO | 459000 µM | 
54 | Nc1ccc(F)cc1 | 152 µM | 
55 | C1OCOCO1 | 66100 µM | 
56 | CCCCCCO | 956 µM | 
57 | Oc1ccc(Oc2ccc(O)cc2)cc1 | 28.6 µM | 
58 | CC(C)=C1C=C2CC[C@@H]3[C@](C)(CCC[C@@]3(C)C(=O)O)[C@H]2CC1 | 4.93 µM | 
59 | Oc1c(Cl)cc(Cl)c(Cl)c1Cc1c(O)c(Cl)cc(Cl)c1Cl | 0.0516 µM | 
60 | O=Cc1ccc(Oc2ccccc2)cc1 | 23.2 µM | 
61 | CCOC(=O)CCCCC(=O)OCC | 89.9 µM | 
62 | CC(=O)c1ccc(Cl)c(Cl)c1Cl | 8.95 µM | 
63 | O=C1CCCCC1 | 6330 µM | 
